This passage reports IC50 results from BindingDB's records for doi:10.1021/jm400639z (Duquesne University, 2013).

Series [1] is described as follows: Inhibition of p-gp overexpressed in human SKOV3/M6-6 isogenic cells after 48 hrs by sulforhodamine B assay.
A short description of series [2]: Inhibition of beta3 tubulin overexpressed in human HeLa cells after 48 hrs by SRB assay. In general terms: In SRB staining, fixed cells bind dye roughly in proportion to their protein.

pIC50: −log10 of the molar value.

Broadly, the pIC50 is the IC50 on a negative log10 scale, so that one unit is a factor of ten. A low value points to a large IC50.

Consider `COc1ccc(N(C)c2nc(C)nc3c2CCC3)cc1`, for which the pIC50 is 7.80 in series [1] and 8.09 in series [2].
With `COc1ccc(N(C)c2nc(C)nc3c2CC(C)C3)cc1` (stereo not given), the pIC50 was 7.36 in series [1] and 7.62 in series [2].
For the compound `COc1ccc(/C=C\c2cc(OC)c(OC)c(OC)c2)cc1O` [combretastin A4], the pIC50 in series [1] was 8.18.
